The values below come from patent US9120749B2, “Quinoline derivatives and MELK inhibitors containing the same” (ONCOTHERAPY SCIENCE, INC., priority 2010, dated 2015).

For one experiment, the system named is HT-1197 cells. The experiment in a line: Cell-based assay: anti-proliferative activity, Cell Counting Kit-8, 72 hours (HT-1197, negative control without MELK expression). As to conditions: Homo sapiens, HT1197, 72 h, 72 hours. How it is done: (§1) To evaluate the expression status of MELK in several cell lines, western blot analysis was performed using crude cell lysate collected from those cells. Anti-MELK antibody (clone 31, BD Biosciences) was used to visualize the expression.
(§2) Active candidate inhibitors against MELK were evaluated for their target-specific cytotoxicity using T47D, A549, BT-549, and HT-1197 cells was used for negative control. 100 micro-L of cell suspension was seeded onto 96-well microtiter plate (ViewPlate-96FTC, PerkinElmer). The initial cell concentration of T47D, A549, BT-549, and HT-1197 were 3,000 cells/well, 2,000 cells/well and 2,500 cells/well, respectively. Cellular growth was determined using Cell Counting Kit-8 (DOJINDO) at 72 hours after the exposure of the candidate inhibitors. […] Accurate IC50 values were calculated as described previously.
For orientation: Tetrazolium dyes change colour on reduction, which living cells bring about.

In the next experiment the test system is T47D cells. The experiment in a line: Cell-based assay: anti-proliferative activity, Cell Counting Kit-8, 72 hours (T47D). The note with it: Homo sapiens, T47D, 72 h. The protocol: as §1, §2
Another experiment deals with MELK (Homo sapiens, UniProt Q14680). The experiment in a line: Kinase assay: MELK activity, phosphorylation of FITC-labeled histone H3 peptide measured by IMAP fluorescence polarization. The class given is biochemical. The protocol: MELK activity was determined in the presence or absence of compounds using fluorescein isothiocyanate-labeled (FITC-labeled) histone H3 peptide as a substrate. […] Test compounds were dissolved in DMSO at 12.5 mM and then serially diluted as the DMSO concentration in the assays to be 1%. […] The reaction was stopped by the addition of three fold assay volume of progressive binding solution. Following 0.5 hour incubation at room temperature, fluorescence polarization was measured by Wallac EnVision 2103 multilabel reader (PerkinElmer).
Chain of MELK (Q14680 whole entry, looked up): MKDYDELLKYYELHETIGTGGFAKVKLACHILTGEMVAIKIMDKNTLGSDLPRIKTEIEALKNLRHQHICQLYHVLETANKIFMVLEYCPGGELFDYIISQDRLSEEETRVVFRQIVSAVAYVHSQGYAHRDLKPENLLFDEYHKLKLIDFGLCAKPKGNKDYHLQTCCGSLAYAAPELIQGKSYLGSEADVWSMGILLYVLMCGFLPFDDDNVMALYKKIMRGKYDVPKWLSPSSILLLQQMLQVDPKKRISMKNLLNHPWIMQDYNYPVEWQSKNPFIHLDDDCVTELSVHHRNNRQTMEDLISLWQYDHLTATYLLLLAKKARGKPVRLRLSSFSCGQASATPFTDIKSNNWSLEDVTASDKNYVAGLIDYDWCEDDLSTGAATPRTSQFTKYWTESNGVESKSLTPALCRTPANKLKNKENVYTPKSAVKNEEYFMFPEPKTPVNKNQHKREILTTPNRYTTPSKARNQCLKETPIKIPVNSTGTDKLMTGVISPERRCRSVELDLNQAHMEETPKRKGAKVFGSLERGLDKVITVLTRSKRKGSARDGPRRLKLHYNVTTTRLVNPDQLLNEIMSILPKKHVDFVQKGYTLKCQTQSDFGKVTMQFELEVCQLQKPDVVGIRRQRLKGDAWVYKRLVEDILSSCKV
Background: Polarisation of emitted light reports the rotation of a fluorescent probe.

For another experiment, the system named is A549 cells. Kind of experiment: Cell-based assay: anti-proliferative activity, Cell Counting Kit-8, 72 hours (A549). The note with it: Homo sapiens, A549, 72 h, 72 hours. How it is done: 100 micro-L of cell suspension was seeded onto 96-well microtiter plate (ViewPlate-96FTC, PerkinElmer). The initial cell concentration of T47D, A549, BT-549, and HT-1197 were 3,000 cells/well, 2,000 cells/well and 2,500 cells/well, respectively. Cellular growth was determined using Cell Counting Kit-8 (DOJINDO) at 72 hours after the exposure of the candidate inhibitors. […] Accurate IC50 values were calculated as described previously.

The mark [1] stands for this setting: HT1197 cells (negative control, no MELK expression).
Setting [2] is: 50 micro-M ATP, FITC-labeled histone H3 peptide substrate, IMAP fluorescence polarization, read-out: IC50 (μM) (kinase assay).
Setting [3] is: read-out: IC50 (μM) (kinase assay).

Like-named read-outs stand apart in the source and are kept apart here.

`O=C(c1cnc2ccc(-c3cc(Cl)c(O)c(Cl)c3)cc2c1-c1ccc(NCCN2CCOCC2)nc1)C1CC1` [Example 450]: the IC50 (usually the midpoint of a concentration-inhibition curve) came to 12 µM with HT-1197 cells (setting [1]), 1.8 µM in the experiment with T47D cells, 0.018 µM at MELK (setting [2]) and 4.6 µM in the experiment on A549 cells.

On to `CN1CCN(Cc2ccc(Nc3c(C(=O)C4CC4)cnc4ccc(-c5ccc(O)c(Cl)c5)cc34)cc2)CC1` [Example 406, (6-(3-chloro-4-hydroxyphenyl)-4-(4-((4-methylpiperazin-1-yl)methyl)phenylamino)quinolin-3-yl)(cyclopropyl)methanone], for which the IC50 in the experiment with HT-1197 cells (setting [1]) came out at 3.4 µM; in the experiment on T47D cells, 1.3 µM; at MELK (setting [2]), 0.019 µM; with A549 cells, 0.49 µM.

Consider `CN1CCN(c2ccc(-c3c(C(=O)C4CC4)cnc4ccc(-c5cc(Cl)c(O)c(Cl)c5)cc34)cc2)CC1` [Example 430, cyclopropyl(6-(3,5-dichloro-4-hydroxyphenyl)-4-(4-(4-methylpiperazin-1-yl)phenyl)quinolin-3-yl)methanone], for which the IC50 in the experiment on HT-1197 cells (setting [1]) amounted to 9.2 µM; with T47D cells, 1.3 µM; at MELK (setting [2]), 0.033 µM; with A549 cells, 2.7 µM.

For the molecule `COc1cc(-c2ccc3ncc(C(=O)C4CC4)c(Nc4ccc(CN(C)C)cn4)c3c2)cc(Cl)c1O` [Example 429, (6-(3-chloro-4-hydroxy-5-methoxyphenyl)-4-(5-((dimethylamino)methyl)pyridin-2-ylamino)quinolin-3-yl)(cyclopropyl)methanone], the IC50 with HT-1197 cells (setting [1]) stood at 19 µM; with T47D cells it was 3.8 µM; at MELK (setting [2]), 0.019 µM; in the experiment on A549 cells, 5.1 µM.

As to `CN(C)CC(=O)N1CCN(c2c(C(=O)C3CC3)cnc3ccc(-c4ccc(O)c(Cl)c4)cc23)CC1` [Example 441, 1-(4-(6-(3-chloro-4-hydroxyphenyl)-3-(cyclopropanecarbonyl)quinolin-4-yl)piperazin-1-yl)-2-(dimethylamino)ethanone], the IC50 in the experiment with HT-1197 cells (setting [1]) was 46 µM; with T47D cells, 0.63 µM; on MELK (setting [2]) it was 0.004 µM; with A549 cells, 0.54 µM.

`N#Cc1cnc2ccc(-c3cc(F)c(O)c(Cl)c3)cc2c1N1CCC(CN2CCCC2)CC1` [Example 434, 6-(3-chloro-5-fluoro-4-hydroxyphenyl)-4-(4-(pyrrolidin-1-ylmethyl)piperidin-1-yl)quinoline-3-carbonitrile]: the IC50 was 10 µM with HT-1197 cells (setting [1]), 0.45 µM in the experiment on T47D cells, 0.035 µM on MELK (setting [2]) and 1.1 µM with A549 cells.

Regarding `CN(C)CC(=O)N1CC2CC1CN2c1c(C(=O)C2CC2)cnc2ccc(-c3cc(F)c(O)c(Cl)c3)cc12` (stereo not drawn) [Example 455], the IC50 in the experiment with HT-1197 cells (setting [1]) turned out to be 60 µM; in the experiment with T47D cells, 12 µM; at MELK (setting [2]), 0.069 µM; in the experiment with A549 cells it was 37 µM.

On to `COc1cc(-c2ccc3ncc(S(C)(=O)=O)c(N4CCC(CN5CCCC5)CC4)c3c2)cc(Cl)c1O` [Example 412, 2-chloro-6-methoxy-4-(3-(methylsulfonyl)-4-(4-(pyrrolidin-1-ylmethyl)piperidin-1-yl)quinolin-6-yl)phenol], for which the IC50 in the experiment on HT-1197 cells (setting [1]) worked out at 2.5 µM; in the experiment with T47D cells, 1.4 µM; at MELK (setting [2]) it was 0.002 µM; in the experiment on A549 cells it was 0.58 µM.

Take `CN(C)Cc1ccc(Nc2c(C(=O)C3CC3)cnc3ccc(-c4cnc(C#N)nc4)cc23)nc1` [Example 439, 5-(3-(cyclopropanecarbonyl)-4-(5-((dimethylamino)methyl)pyridin-2-ylamino)quinolin-6-yl)pyrimidine-2-carbonitrile]: the concentration for half-maximal inhibition (IC50) in the experiment with HT-1197 cells (setting [1]) was 3.6 µM; in the experiment with T47D cells, 0.61 µM; at MELK (setting [2]), 0.058 µM; with A549 cells, 4 µM.

For the molecule `COc1cc(-c2ccc3ncc(C(=O)C4CC4)c(Nc4ccc(C5CCCN5C)cn4)c3c2)cc(Cl)c1O` (stereo not drawn) [Example 444], the IC50 in the experiment with HT-1197 cells (setting [1]) is 10 µM; in the experiment with T47D cells, 6.8 µM; in the experiment on A549 cells it was 7.6 µM.

For `COc1cc(-c2ccc3ncc(C#N)c(N4CCC(CN5CCCC5)CC4)c3c2)cc(Cl)c1O` [Example 428, 6-(3-chloro-4-hydroxy-5-methoxyphenyl)-4-(4-(pyrrolidin-1-ylmethyl)piperidin-1-yl)quinoline-3-carbonitrile], the concentration for half-maximal inhibition (IC50) in the experiment with HT-1197 cells (setting [1]) was 13 µM; with T47D cells, 7.6 µM; on MELK (setting [2]), 0.0037 µM; in the experiment with A549 cells it was 2.6 µM.

Turning to `CC(=O)c1cnc2ccc(-c3cnc(C#N)nc3)cc2c1Nc1ccc(CN(C)C)cc1` [Example 414, 5-(3-acetyl-4-(4-((dimethylamino)methyl)phenylamino)quinolin-6-yl)pyrimidine-2-carbonitrile], the IC50 with HT-1197 cells (setting [1]) came out at 0.8 µM; in the experiment with T47D cells, 0.24 µM; with A549 cells, 1.5 µM.

Turning to `CN(C)CC1CCN(c2c(C(=O)C3CCCC3)cnc3ccc(-c4cc(F)c(O)c(Cl)c4)cc23)CC1` [Example 384, (6-(3-chloro-5-fluoro-4-hydroxyphenyl)-4-(4-((dimethylamino)methyl)piperidin-1-yl)quinolin-3-yl)(cyclopentyl)methanone], the IC50 in the experiment on HT-1197 cells (setting [1]) is 4 µM; in the experiment on T47D cells, 2 µM; at MELK (setting [2]), 0.0046 µM; in the experiment on A549 cells, 1.9 µM.

For the molecule `CN1CCN(C(=O)CNc2c(C(=O)C3CC3)cnc3ccc(-c4cc(F)c(O)c(Cl)c4)cc23)CC1` [Example 390, 2-(6-(3-chloro-5-fluoro-4-hydroxyphenyl)-3-(cyclopropanecarbonyl)quinolin-4-ylamino)-1-(4-methylpiperazin-1-yl)ethanone], the IC50 in the experiment on HT-1197 cells (setting [1]) is 10 µM; in the experiment on T47D cells, 2 µM; on MELK (setting [2]), 0.025 µM; in the experiment on A549 cells it was 2.7 µM.

Regarding `COc1cc(-c2ccc3ncc(C(=O)C4CC4)c(N4C[C@@H]5C[C@H]4CN5C(=O)CN(C)C)c3c2)cc(Cl)c1O` [Example 456], the IC50 was determined as 29 µM in the experiment on HT-1197 cells (setting [1]), 3.8 µM in the experiment on T47D cells, 0.0078 µM at MELK and 4.2 µM in the experiment on A549 cells.

In the case of `CN(C)Cc1ccc(-c2c(C(=O)C3CC3)cnc3ccc(-c4cc(Cl)c(O)c(Cl)c4)cc23)cc1` [Example 431, cyclopropyl(6-(3,5-dichloro-4-hydroxyphenyl)-4-(4-((dimethylamino)methyl)phenyl)quinolin-3-yl)methanone], the half-maximal inhibitory concentration (IC50) was 7.5 µM in the experiment with HT-1197 cells (setting [1]), 0.97 µM in the experiment with T47D cells, 0.0039 µM on MELK (setting [2]) and 0.59 µM with A549 cells.

`O=C(c1cnc2ccc(-c3cc(F)c(O)c(Cl)c3)cc2c1N1CCN(CCN2CCCC2)C(=O)C1)C1CC1` [Example 440, 4-(6-(3-chloro-5-fluoro-4-hydroxyphenyl)-3-(cyclopropanecarbonyl)quinolin-4-yl)-1-(2-(pyrrolidin-1-yl)ethyl)piperazin-2-one]: the half-inhibitory concentration (IC50) turned out to be 10 µM in the experiment on HT-1197 cells (setting [1]), 1.1 µM in the experiment with T47D cells, 0.0044 µM at MELK (setting [2]) and 5.1 µM in the experiment with A549 cells.

Turning to `CN1CCN(C(=O)CNc2c(C(=O)C3CC3)cnc3ccc(-c4ccc(O)c(Cl)c4)cc23)CC1` [Example 393, 2-(6-(3-chloro-4-hydroxyphenyl)-3-(cyclopropanecarbonyl)quinolin-4-ylamino)-1-(4-methylpiperazin-1-yl)ethanone], the IC50 in the experiment with T47D cells is 2.6 µM; at MELK (setting [2]) it was 0.095 µM; with A549 cells, 2.2 µM.

Consider `COc1cc(-c2ccc3ncc(C(C)=O)c(Nc4ccc(CN5CCCC5)cc4)c3c2)cc(Cl)c1O` [Example 419, 1-(6-(3-chloro-4-hydroxy-5-methoxyphenyl)-4-(4-(pyrrolidin-1-ylmethyl)phenylamino)quinolin-3-yl)ethanone], for which the IC50 in the experiment on HT-1197 cells (setting [1]) turned out to be 5.1 µM; with T47D cells, 0.99 µM; in the experiment on A549 cells, 0.84 µM.

Regarding `Cc1cc(O)c(Cl)cc1-c1ccc2ncc(C(=O)C3CC3)c(N3CCC(CN(C)C)CC3)c2c1` [Example 448], the values for the IC50 in the experiment with HT-1197 cells (setting [1]), in the experiment with T47D cells and in the experiment on A549 cells were 7.9 µM, 2 µM and 1.7 µM, respectively.

`O=C(c1cnc2ccc(-c3cc(Cl)c(O)c(Cl)c3)cc2c1Nc1ccc(CN2CCC(F)(F)C2)cc1)C1CC1` [Example 581, cyclopropyl(6-(3,5-dichloro-4-hydroxyphenyl)-4-(4-((3,3-difluoropyrrolidin-1-yl)methyl)phenylamino)quinolin-3-yl)methanone]: the figures for the IC50 with HT-1197 cells (HT1197 cells (negative control)), in the experiment on T47D cells and at MELK (setting [3]) were 5.3 µM, 1.4 µM and 0.63 µM, respectively.

As to `CN(C)CC1CCN(c2c(C(=O)C3CC3)cnc3ccc(-c4ccc(C(=O)O)cc4)cc23)CC1` [Example 492, 4-(3-(cyclopropanecarbonyl)-4-(4-((dimethylamino)methyl)piperidin-1-yl)quinolin-6-yl)benzoic acid], the figures for the IC50 in the experiment on HT-1197 cells (setting [1]), with T47D cells and at MELK (setting [3]) were 10 µM, 10 µM and 1.4 µM, respectively.
